Assay results published in US20050267182A1, “Urea derivatives as FLT-3 modulators” (Ambit Biosciences Corporation, priority 2003, published 2005).

Columns and labels:
MV4,11 cells = assay: FLT3 assay using MV4,11 cells (cellular proliferation, MTS); assay type: cell-based, human; settings: cell assay code CS0001; for IC50: Homo sapiens, MV4-11
Procedure: The ability of FLT3 kinase inhibitors to inhibit cellular proliferation was also examined. MV4:11 was a cell line derived from a patient with acute myelogenous leukemia.
FLT3 Assay Using MV4,11 Cells
MV4,11 cells were grown in an incubator @ 37° C. in 5% CO2 in Medium 2 (RPMI, 10% FBS, 4 mM glutamine, Penn/Strep). The cells were counted daily and the cell density was kept between 1e5 and 8e5 cells/ml.
Day One: Enough cells were harvested for experiments to be conducted in 50 ml conical tubes. The harvested cells were spun at 500 g for 5 min at 4° C., the supernatant was then aspirated and the cells were resuspended in the starting volume of 1×PBS. The cells were again spun at 500 g for 5 min at 4° C. and the supernatant again aspirated. The cells were then resuspended in medium 3 (DMEM w/ glut, 10% FBS, Penn/Strep) to a density of 4e5 cells/ml and incubated (37° C. in 5% CO2 O/N.
Day Two: The cells were counted and enough medium 3 was added to decrease density to 2e5 cells/ml. 50 ul (10,000 cells) was aliquoted into each well of a 96 well optical plate using multichannel pipetman. The compound plate was then set up by aliquoting 3 μl of negative control (DMSO) into column 1 of a 96 well 300 ul polypropylene plate, aliquoting 3 μt of positive control (10 mM AB20121) into column 12 of plate, and aliquoting 3 μl of appropriate compounds from serial dilutions into columns 2-11. To each well, 150 μl of Medium 3 was added and 50 μl of compound/medium mixture from compound plate into rows of optical plate in duplicate. The cells were then incubated @ 37° C. in 5% CO2 for 3 days.
Day Five: MTS was thawed in a H2O bath. 20 μl of MTS was added to each well of optical plate and the cells were incubated (37° C. in 5% CO2 for 2 hours. The plate was then placed on a plate shaker for 30 seconds on high speed.

FLT3 = target: T1, FLT3 (Homo sapiens, UniProt P36888); assay: Binding constant (Kd) measurement, phage-displayed kinase competition binding assay; settings: for Binding Assay: FLT3(DKIN): FLT3(DKIN) construct; for Binding Assay: FLT3(JMminus): FLT3(JMminus) construct
T1 construct: FLT3(DKIN); made in house
T1 sequence (P36888 610-943 limits assumed): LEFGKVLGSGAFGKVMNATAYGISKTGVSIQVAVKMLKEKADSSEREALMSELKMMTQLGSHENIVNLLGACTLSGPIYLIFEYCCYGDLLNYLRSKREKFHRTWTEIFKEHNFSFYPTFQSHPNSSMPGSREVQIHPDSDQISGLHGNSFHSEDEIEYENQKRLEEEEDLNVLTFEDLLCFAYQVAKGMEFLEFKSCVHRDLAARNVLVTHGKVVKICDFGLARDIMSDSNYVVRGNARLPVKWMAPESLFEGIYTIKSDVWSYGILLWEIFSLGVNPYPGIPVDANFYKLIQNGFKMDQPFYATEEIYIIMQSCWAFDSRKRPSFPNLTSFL
Source text: Binding Constant (Kd) Measurements for Small-Molecule-Kinase Interactions
The term “ND” represents non-determined values.

SMILES | Cell Assay: CS0001:IC50 (MV4,11 cells) | Binding Assay: FLT3(DKIN) (FLT3) | Binding Assay: FLT3(JMminus) (FLT3) | IC50 (MV4,11 cells) [µM]
CC(C)(C)c1cc(NC(=O)Nc2ccc(OCCc3ccc(F)cc3)cc2)no1 [Compound G24] | + + + | + + + + |  | 
Cn1nc(-c2ccccc2)c(C(=O)Nc2ccc(NC(=O)Nc3cc(C(C)(C)C)on3)cc2)c1Cl [Compound N11] | + + | + + |  | 
CC(C)(C)c1cc(NC(=O)Nc2ccncc2)no1 [Compound A53] | + + | + + |  | 
Cc1ccc(COc2ccc(NC(=O)Nc3cc(C(C)(C)C)on3)cc2)cc1 [Compound G15] | + + + + | + + + + |  | 
Cc1cc(NC(=O)[C@](C)(O)CSc2ccc(F)cc2)ccc1NC(=O)Nc1cc(C(C)(C)C)on1 [Compound N170] | + + + |  | + + + + | 
CC(C)(C)c1cc(NC(=O)Nc2ccc(OCCN3CCSCC3)cc2)no1 [Compound G53] | + + | + + + |  | 
CC(C)(C)c1cc(NC(=O)Nc2ccc(NC(=O)c3c4ccccc4nc4ccccc34)cc2)no1 [Compound N148] | + + | + + + |  | 
CC(C)(C)c1csc(NC(=O)Nc2ccc(OCc3ccccc3)cc2)n1 [Compound G49] | + + + | + + |  | 
Cc1ccc(-n2nc(C(C)(C)C)cc2NC(=O)Nc2ccc(OCCN3CCOC(CO)C3)c3ccccc23)cc1 (stereo not drawn) [Compound G38] | + + + | + + + + |  | 
CC(C)(C)c1cc(NC(=O)Nc2ccc(NC(=O)C3CCNCC3)cc2)no1 [Compound N150] |  | + + + |  | > 10
Cn1nc(C(C)(C)C)cc1NC(=O)Nc1ccc(OCc2ccccc2)cc1 [Compound H2] | + + + + | + + + + |  | 
CC(C)(C)c1cc(NC(=O)Nc2ccc(OCc3ccc(F)cc3Cl)cc2)no1 [Compound G18] | + + + | + + + + |  | 
Cc1[nH]c(C(=O)Nc2ccc(NC(=O)Nc3cc(C(C)(C)C)on3)cc2)c(C)c1CCC(=O)O [Compound N39] | + + | + + + + |  | 
CC(C)(C)c1cc(NC(=O)Nc2ccc(NC(=O)c3cc(Cl)nnc3Cl)cc2)no1 [Compound N174] | + + and + + + | + + + + | + + + | 
CC(C)(C)c1cc(NC(=O)Nc2ccc(NC(=O)c3ccc(Br)cc3)cc2)no1 [Compound N27] | + + | + + |  | 
CC(C)(C)c1cc(NC(=O)Nc2ccc(OCCN3CCOCC3)cc2)no1 [Compound G40] | + + | + + + |  | 
CC(C)(C)c1cc(NC(=O)Nc2ccc(NC(=O)Cc3sc(-c4ccc(Cl)cc4)nc3-c3ccccc3)cc2)no1 [Compound N66] | + + + | + + + + |  | 
CC(C)(C)c1cc(NC(=O)Nc2ccc(NC(=O)Cc3noc4ccccc34)cc2)no1 [Compound N80] | + + + |  | + + + | 
CC(=O)c1ccc(NC(=O)Nc2cc(C(C)(C)C)on2)cc1 [Compound A20] | + + + | + + + |  | 
CC(C)(C)c1cc(NC(=O)Nc2ccc(NC(=O)c3cc(O)c4cccc(O)c4n3)cc2)no1 [Compound N176] |  |  | + + + | > 10
CC(C)(C)c1cc(NC(=O)Nc2ccc(NC(=O)c3ccc4cccnc4n3)cc2)no1 [Compound N144] | + + + | + + + + |  | 
CC(C)(C)c1cc(NC(=O)Nc2ccc(NC(=O)c3cnc4cc(C(F)(F)F)ccc4c3O)cc2)no1 [Compound N146] | + + + | + + + |  | 
COc1ccc(NC(=O)Nc2cc(C(C)(C)C)on2)cc1OC [Compound A55] |  |  | + + | > 10
CC1CN(CCOc2ccc(NC(=O)Nc3cc(C(C)(C)C)on3)cc2)CC(C)O1 (stereo not drawn) [Compound G42] | + + | + + + |  | 

SMILES | Cell Assay: CS0001:IC50 (MV4,11 cells) | Binding Assay: FLT3(DKIN) (FLT3) | Binding Assay: FLT3(JMminus) (FLT3) | IC50 (MV4,11 cells) [µM]
CC(C)(C)c1cc(NC(=O)Nc2ccc(NC(=O)c3ncccc3C(N)=O)cc2)no1 [Compound N6] | + + | + + + |  | 
CC(C)(C)c1cc(NC(=O)Nc2ccc(OCc3ccccc3C(F)(F)F)cc2)no1 [Compound G4] | + + | + + + |  | 
CC(C)(C)c1cc(NC(=O)Nc2ccc(OCc3c(F)cccc3F)cc2)no1 [Compound G21] | + + + + | + + + + |  | 
COc1ccc(C(=O)c2c[nH]c(C(=O)Nc3ccc(NC(=O)Nc4cc(C(C)(C)C)on4)cc3)c2)cc1 [Compound N177] | + + |  | + + + | 
CC(C)(C)c1cc(NC(=O)Nc2ccc(NC(=O)c3ncc[nH]3)cc2)no1 [Compound N13] | + + + + | + + + + |  | 
CC(C)(C)c1cc(NC(=O)Nc2ccc(OCc3ccc4nonc4c3)cc2)no1 [Compound G55] | + + + | + + + + |  | 
Cc1cccnc1-c1noc(-c2ccc(NC(=O)Nc3cc(C(C)(C)C)on3)cc2)n1 [Compound P4] | + + + + | + + + + |  | 
Cc1nccn1CCOc1ccc(NC(=O)Nc2cc(C(C)(C)C)on2)cc1 [Compound G51] | + + + | + + + + |  | 
Cc1nc(C(=O)Nc2ccc(NC(=O)Nc3cc(C(C)(C)C)on3)cc2)nn1-c1cc(Cl)cc(Cl)c1 [Compound N15] | + + | + + + |  | 
CC(C)c1nnsc1C(=O)Nc1ccc(NC(=O)Nc2cc(C(C)(C)C)on2)cc1 [Compound N182] | + + |  | + + + | 
COc1cc(OC)nc(Oc2ccccc2C(=O)Nc2ccc(NC(=O)Nc3cc(C(C)(C)C)on3)cc2)n1 [Compound N70] | + + |  | + + + | 
CC(C)(C)c1cc(NC(=O)Nc2ccc(NC(=O)c3cc4cccnc4nc3C(F)(F)F)cc2)no1 [Compound N61] | + + + | + + + |  | 
CC(C)(C)c1cc(NC(=O)Nc2ccc(NC(=O)C(N)Cc3ccccc3F)cc2)no1 (stereo not drawn) [Compound N42] | + + | + + + |  | 
COc1cc(NC(=O)c2cn3nc(Cl)ccc3n2)ccc1NC(=O)Nc1cc(C(C)(C)C)on1 [Compound N171] | + + + |  | + + | 
Cc1nnsc1C(=O)Nc1ccc(NC(=O)Nc2cc(C(C)(C)C)on2)cc1 [Compound N18] | + + | + + + |  | 
CC(C)(C)c1cc(NC(=O)Nc2ccc(C(=O)Nc3ccc(F)cc3F)cc2)no1 [Compound N153] | + + + | + + + + |  | 
CC(C)(C)c1cc(NC(=O)Nc2ccc(NC(=O)c3ccc(OC(F)(F)F)cc3)cc2)no1 [Compound N30] | + + | + + |  | 
Cc1noc(-c2ccc(NC(=O)Nc3cc(C(C)(C)C)on3)cc2)n1 [Compound P9] | + + + | + + + + |  | 
CC(C)(C)c1cc(NC(=O)Nc2ccc(C(=O)Nc3ccc(Cl)cc3)cc2)no1 [Compound N156] | + + + | + + + + |  | 
CC(C)(C)c1cc(NC(=O)Nc2ccc(OCc3ccc(C(F)(F)F)cc3)cc2)no1 [Compound G6] | + + + | + + + + |  | 
CC(C)(C)c1cc(NC(=O)Nc2ccc(NC(=O)c3cnn(-c4cccc(Cl)c4)c3Br)cc2)no1 [Compound N45] | + + + | + + + + |  | 
CC(C)(C)c1cc(NC(=O)Nc2cc(C(C)(C)C)on2)on1 [Compound A54] |  | + + + |  | 
CC(C)(C)c1cc(NC(=O)Nc2ccccc2)no1 [Compound A2] |  | + + + + |  | 
